Test results reported in the supplement of paper PMC10307832.

What was measured:
Test in all cases: relative viability (nuclei count vs DMSO), 5 days (fraction); higher = more cells survive
Bexarotene + Pictilisib = compound: C=C(c1ccc(C(=O)O)cc1)c1cc2c(cc1C)C(C)(C)CCC2(C)C [Bexarotene] + CS(=O)(=O)N1CCN(Cc2cc3nc(-c4cccc5[nH]ncc45)nc(N4CCOCC4)c3s2)CC1 [Pictilisib] (partner 1 µM)
How it was run: (§1)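 A single step with final 0.05% Triton X-100, 1% formaldehyde and 1 ug/ml Hoechst fixed the cells and stained nuclei 5 days after treatment. Lung cancer cell lines in 1536-well plates had been treated by pin tool the day after seeding with one drug alone or a fixed anchor-drug dose plus five library-drug doses (not always all listed) in √10 steps, and nuclei were counted on 4× images. Relative viability is the ratio of nuclei in treated wells to nuclei in vehicle wells, taken as the median of duplicate plates.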

Bexarotene + Dasatinib = compound: C=C(c1ccc(C(=O)O)cc1)c1cc2c(cc1C)C(C)(C)CCC2(C)C [Bexarotene] + Cc1nc(Nc2ncc(C(=O)Nc3c(C)cccc3Cl)s2)cc(N2CCN(CCO)CC2)n1 [Dasatinib] (partner 0.075 µM)
How it was run: as §1

Bexarotene + Crizotinib = compound: C=C(c1ccc(C(=O)O)cc1)c1cc2c(cc1C)C(C)(C)CCC2(C)C [Bexarotene] + C[C@@H](Oc1cc(-c2cnn(C3CCNCC3)c2)cnc1N)c1c(Cl)ccc(F)c1Cl [Crizotinib] (partner 1 µM)
How it was run: as §1

Bexarotene + Vorinostat = compound: C=C(c1ccc(C(=O)O)cc1)c1cc2c(cc1C)C(C)(C)CCC2(C)C [Bexarotene] + O=C(CCCCCCC(=O)Nc1ccccc1)NO [Vorinostat] (partner 1 µM)
How it was run: as §1

Cell Line	relative viability (Bexarotene + Pictilisib; first compound 0.08 µM)	relative viability (Bexarotene + Pictilisib; first compound 0.253 µM)	relative viability (Bexarotene + Pictilisib; first compound 0.8 µM)	relative viability (Bexarotene + Pictilisib; first compound 2.53 µM)	relative viability (Bexarotene + Pictilisib; first compound 8 µM)	relative viability (Bexarotene + Dasatinib; first compound 0.08 µM)	relative viability (Bexarotene + Dasatinib; first compound 0.253 µM)	relative viability (Bexarotene + Dasatinib; first compound 0.8 µM)	relative viability (Bexarotene + Dasatinib; first compound 2.53 µM)	relative viability (Bexarotene + Dasatinib; first compound 8 µM)	relative viability (Bexarotene + Crizotinib; first compound 0.08 µM)	relative viability (Bexarotene + Crizotinib; first compound 0.253 µM)	relative viability (Bexarotene + Crizotinib; first compound 0.8 µM)	relative viability (Bexarotene + Crizotinib; first compound 2.53 µM)	relative viability (Bexarotene + Crizotinib; first compound 8 µM)	relative viability (Bexarotene + Vorinostat; first compound 0.08 µM)	relative viability (Bexarotene + Vorinostat; first compound 0.253 µM)	relative viability (Bexarotene + Vorinostat; first compound 0.8 µM)	relative viability (Bexarotene + Vorinostat; first compound 2.53 µM)	relative viability (Bexarotene + Vorinostat; first compound 8 µM)
NCI-H3122	0.82	0.821	0.647	0.855	0.802	0.755	0.959	0.729	0.768	0.701	0.238	0.261	0.233	0.276	0.337	1.17	1	1.01	1.12	1.11
PC-3 [JPC-3]	0.868	0.749	0.519	0.656	0.666	0.77	0.928	0.833	0.974	0.867	1.02	1.02	0.904	0.965	0.857	0.963	0.639	0.737	0.417	0.599
PC-14	0.663	0.724	0.7	0.704	0.565	0.281	0.305	0.269	0.319	0.274	0.912	1.04	1.04	0.946	0.841	0.882	0.844	0.643	0.741	0.636
RERF-LC-KJ	0.492	0.592	0.503	0.387	0.57	0.757	0.707	0.703	0.825	0.742	0.773	0.791	0.76	0.777	0.752	0.689	0.707	0.641	0.7	0.609
SK-LU-1	0.717	0.663		0.567	0.63	0.201	0.215		0.2	0.203	0.926	1.06		0.896	0.717	0.924	0.866		0.734	0.672
SK-MES-1	0.397	0.408	0.466	0.329	0.399	0.283	0.459	0.348	0.401	0.313	0.995	1.06	1.01	1.04	0.925	1.2	1.28	1.11	1.06	0.936
SW 1573	0.554	0.459	0.447	0.42	0.436	0.593	0.467	0.402	0.301	0.41	0.764	0.82	0.688	0.684	0.552	0.918	0.645	1.11	0.635	0.746
UMC-11	0.973	0.814	0.756	0.805	0.802	0.485	0.516	0.516	0.514	0.493	0.546	0.684	0.537	0.572	0.587	0.357	0.379	0.408	0.377	0.346
